From paper PMC2065875, “A Point Mutation in a Herpesvirus Polymerase Determines Neuropathogenicity” (PLoS Pathogens, 2007)

Assays:
[1] = target: T1, EHV-1 Pol D752 + pORF18 (viral DNA polymerase holoenzyme) (Equine herpesvirus type 1 (strain AB4P), UniProt P28858); experiment: [3H]dTTP incorporation into poly(dA)-oligo(dT), in vitro translated Pol; type: biochemical; details: poly(dA)-oligo(dT) template, 4 μl translated Pol plus 200 fmol pORF18 in 20 μl, 0.5% DMSO
T1 construct: gene 30; Pol (D752) from pTM1-ORF30 made by in vitro transcription-translation (TNT T7 coupled reticulocyte lysate, not purified); pORF18 purified, baculovirus-expressed; with DNA polymerase processivity factor
T1 sequence (P28958 whole entry): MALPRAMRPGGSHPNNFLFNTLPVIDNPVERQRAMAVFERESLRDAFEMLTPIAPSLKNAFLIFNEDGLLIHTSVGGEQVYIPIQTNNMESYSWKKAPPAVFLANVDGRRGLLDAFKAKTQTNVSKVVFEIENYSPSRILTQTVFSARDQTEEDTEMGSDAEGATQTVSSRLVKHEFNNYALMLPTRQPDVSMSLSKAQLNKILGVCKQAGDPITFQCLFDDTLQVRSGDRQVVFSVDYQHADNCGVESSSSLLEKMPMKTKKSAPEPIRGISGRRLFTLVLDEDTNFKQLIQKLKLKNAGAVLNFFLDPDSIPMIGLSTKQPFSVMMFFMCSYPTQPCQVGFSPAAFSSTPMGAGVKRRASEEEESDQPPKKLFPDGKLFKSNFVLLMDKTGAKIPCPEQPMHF
T1 sequence (P28858 whole entry): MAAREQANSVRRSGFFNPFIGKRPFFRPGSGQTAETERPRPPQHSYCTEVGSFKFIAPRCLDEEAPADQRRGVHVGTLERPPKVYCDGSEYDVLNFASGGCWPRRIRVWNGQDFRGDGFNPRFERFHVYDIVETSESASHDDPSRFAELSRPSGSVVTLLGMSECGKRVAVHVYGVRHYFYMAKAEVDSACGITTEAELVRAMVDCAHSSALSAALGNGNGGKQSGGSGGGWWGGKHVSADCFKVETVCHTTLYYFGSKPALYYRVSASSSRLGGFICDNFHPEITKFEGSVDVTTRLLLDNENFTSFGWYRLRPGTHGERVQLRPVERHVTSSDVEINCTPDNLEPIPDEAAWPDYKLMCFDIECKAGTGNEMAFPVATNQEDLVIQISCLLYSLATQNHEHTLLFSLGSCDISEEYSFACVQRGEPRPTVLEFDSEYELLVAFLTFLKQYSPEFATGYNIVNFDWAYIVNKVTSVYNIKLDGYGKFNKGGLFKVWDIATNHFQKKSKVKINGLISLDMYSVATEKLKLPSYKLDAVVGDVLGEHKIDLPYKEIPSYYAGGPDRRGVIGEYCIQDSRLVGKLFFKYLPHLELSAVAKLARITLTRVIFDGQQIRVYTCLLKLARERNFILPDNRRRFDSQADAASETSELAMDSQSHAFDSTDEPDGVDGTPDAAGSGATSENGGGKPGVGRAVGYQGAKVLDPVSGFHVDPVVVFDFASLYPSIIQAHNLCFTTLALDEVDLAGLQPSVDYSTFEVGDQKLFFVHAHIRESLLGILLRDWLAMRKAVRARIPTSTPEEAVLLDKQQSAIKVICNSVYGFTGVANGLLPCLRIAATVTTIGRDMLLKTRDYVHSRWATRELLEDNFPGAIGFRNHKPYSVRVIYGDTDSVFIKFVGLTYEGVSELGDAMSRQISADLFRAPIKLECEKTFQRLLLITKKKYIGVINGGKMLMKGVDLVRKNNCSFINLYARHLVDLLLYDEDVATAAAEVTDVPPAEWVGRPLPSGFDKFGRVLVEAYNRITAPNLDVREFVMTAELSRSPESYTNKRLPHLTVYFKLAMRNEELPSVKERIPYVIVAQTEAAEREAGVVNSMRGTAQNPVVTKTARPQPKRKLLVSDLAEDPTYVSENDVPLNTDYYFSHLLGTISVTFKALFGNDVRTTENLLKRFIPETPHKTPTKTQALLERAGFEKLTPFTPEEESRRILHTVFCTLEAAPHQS

[2] = target: T2, EHV-1 Pol D752 + pORF18 (viral DNA polymerase holoenzyme) (Equine herpesvirus type 1 (strain AB4P), UniProt P28858, D752N); details: poly(dA)-oligo(dT) template, [3H]dTTP; 4 μl translated Pol plus 200 fmol pORF18 in 20 μl; 0.5% DMSO
T2 construct: gene 30
T2 sequence (P28858 whole entry, stated change not applied): as the sequence (P28858 whole entry) above
T2 sequence (P28958 whole entry, stated change not applied, further chain): as the sequence (P28958 whole entry) above

Work on aphidicolin yielded an IC50 [1] of 3.1 µM and an IC50 [2] of 0.9 µM.
